Reference: patent US20260285850A1, “SUBSTITUTED OXAZOLIDINONES AND IMIDAZOLINONES AS HERBICIDES” (FMC CORPORATION, priority 2023, published 2026)

Assays:
Assay type in all cases: in vivo
[1] = tested on: sedge, umbrella (small-flower umbrella sedge, Cyperus difformis); experiment: Test B flooded paddy test, visual plant response rating 0-100; details: 250 g ai/ha, Flood, applied to paddy water, evaluated after 13 days
Method in brief: (§1)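 In this flooded assay, 2-leaf seedlings received compound through the water layer, kept at 3 cm over the soil. Plants were held 13 days in a greenhouse and then visually compared with control pots.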

[2] = tested on: barnyardgrass (Echinochloa crusgalli); experiment: as above; details: 250 g ai/ha, Flood, applied to paddy water, evaluated after 13 days
Method in brief: as §1

[3] = tested on: ducksalad (Heteranthera limosa); experiment: as above; details: 250 g ai/ha, Flood, applied to paddy water, evaluated after 13 days
Method in brief: as §1

rice (Oryza sativa) = experiment: as above; details: 250 g ai/ha, Flood, applied to paddy water, evaluated after 13 days
Method in brief: as §1

[4] = tested on: barnyardgrass (Echinochloa crus-galli); experiment: Test A postemergence application, visual injury rating 0-100
Method in brief: (§2)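 Directed preemergence spray onto seeded soil or postemergence spray onto 2-10 cm plants (loam plus sand); compound carried in surfactant-containing non-phytotoxic solvent. Injury rated by eye after 10 d greenhouse growth; 0 = no effect, 100 = complete control.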

[5] = tested on: blackgrass (Alopecurus myosuroides); experiment: as above
Method in brief: as §2

corn (Zea mays) [6] = experiment: as above
Method in brief: as §2

[7] = tested on: palmer (palmer amaranth, palmer pigweed, Amaranthus palmeri); experiment: as above
Method in brief: as §2

[8] = tested on: oat, wild (wild oat, Avena fatua); experiment: as above
Method in brief: as §2

[9] = tested on: green foxtail (Setaria viridis); experiment: as above
Method in brief: as §2

soybean (Glycine max) [10] = experiment: as above
Method in brief: as §2

[11] = tested on: ryegrass, Italian (italian ryegrass, Lolium multiflorum); experiment: as above
Method in brief: as §2

[12] = tested on: ragweed (common ragweed, Ambrosia artemisiifolia); experiment: as above
Method in brief: as §2

[13] = tested on: wheat (Triticum aestivum); experiment: as above
Method in brief: as §2

[14] = tested on: horseweed (Erigeron canadensis); experiment: as above; details: Postemergence, 16 g ai/ha, greenhouse 10 days; 0 no effect, 100 complete control
Method in brief: as §2

kochia (Bassia scoparia) [15] = experiment: as above
Method in brief: as §2

[16] = tested on: barnyardgrass (Echinochloa crus-galli); experiment: Test A preemergence soil spray, visual injury rating 0-100; details: 10 days
Method in brief: as §2

[17] = tested on: blackgrass (Alopecurus myosuroides); experiment: as above; details: 10 days
Method in brief: as §2

corn (Zea mays) [18] = experiment: as above; details: 10 days
Method in brief: as §2

[19] = tested on: palmer (palmer amaranth, palmer pigweed, Amaranthus palmeri); experiment: as above; details: 10 days
Method in brief: as §2

[20] = tested on: oat, wild (wild oat, Avena fatua); experiment: as above; details: 10 days
Method in brief: as §2

[21] = tested on: green foxtail (Setaria viridis); experiment: as above; details: 10 days
Method in brief: as §2

soybean (Glycine max) [22] = experiment: as above; details: 10 days
Method in brief: as §2

[23] = tested on: ryegrass, Italian (italian ryegrass, Lolium multiflorum); experiment: as above; details: 10 days
Method in brief: as §2

[24] = tested on: ragweed (common ragweed, Ambrosia artemisiifolia); experiment: as above; details: 10 days
Method in brief: as §2

[25] = tested on: wheat (Triticum aestivum); experiment: as above; details: 10 days
Method in brief: as §2

kochia (Bassia scoparia) [26] = experiment: as above; details: 10 days
Method in brief: as §2

[27] = 62 g ai/ha, postemergence, 10 days, 0 = no effect, 100 = complete control
[28] = Postemergence, 16 g ai/ha, greenhouse 10 days, 0 no effect, 100 complete control
[29] = 62 g ai/ha, 0 = no effect, 100 = complete control

## CCOC(=O)C1=CCC(NC(=O)C2(C)CN(c3cc(Cl)cc(Cl)c3)C(=O)O2)C1 (stereo not shown) [Compound 113]
[1]
  Plant response rating, Sedge, Umbrella (0 to 100 scale, 0 is no effect and 100 is complete control): 0
[2]
  Plant response rating, Barnyardgrass (0 to 100 scale, 0 is no effect and 100 is complete control): 0
[3]
  Plant response rating, Ducksalad (0 to 100 scale, 0 is no effect and 100 is complete control): 0
Rice (Oryza sativa)
  Plant response rating, Rice (0 to 100 scale, 0 is no effect and 100 is complete control): 0
[4]; [27]
  Barnyardgrass plant response rating (0-100): 10
[4]; [28]
  Barnyardgrass plant response rating (0 to 100 scale): 0
[5]; [27]
  Blackgrass plant response rating (0-100): 20
[5]; [28]
  Blackgrass plant response rating (0 to 100 scale): 0
Corn (Zea mays) [6]; [27]
  Corn plant response rating (0-100): 20
Corn (Zea mays) [6]; [28]
  Corn plant response rating (0 to 100 scale): 0
[7]; [27]
  Pigweed, Palmer plant response rating (0-100): 10
[7]; [28]
  Pigweed, Palmer plant response rating (0 to 100 scale): 0
[8]; [27]
  Oat, Wild plant response rating (0-100): 0
[8]; [28]
  Oat, Wild plant response rating (0 to 100 scale): 0
[9]; [27]
  Foxtail, Green plant response rating (0-100): 20
[9]; [28]
  Foxtail, Green plant response rating (0 to 100 scale): 0
Soybean (Glycine max) [10]; [27]
  Soybean plant response rating (0-100): 0
Soybean (Glycine max) [10]; [28]
  Soybean plant response rating (0 to 100 scale): 0
[11]; [27]
  Ryegrass, Italian plant response rating (0-100): 0
[11]; [28]
  Ryegrass, Italian plant response rating (0 to 100 scale): 0
[12]; [27]
  Ragweed plant response rating (0-100): 30
[12]; [28]
  Ragweed plant response rating (0 to 100 scale): 0
[13]; [27]
  Wheat plant response rating (0-100): 0
[13]; [28]
  Wheat plant response rating (0 to 100 scale): 0
[14]
  Horseweed plant response rating (0 to 100 scale): 0
Kochia (Bassia scoparia) [15]; [27]
  Kochia plant response rating (0-100): 0
Kochia (Bassia scoparia) [15]; [28]
  Kochia plant response rating (0 to 100 scale): 0
[16]; 16 g ai/ha, 0 to 100 scale
  Barnyardgrass plant response rating: 0
[16]; [29]
  Barnyardgrass plant response rating (0-100): 0
[17]; 16 g ai/ha, 0 to 100 scale
  Blackgrass plant response rating: 0
[17]; [29]
  Blackgrass plant response rating (0-100): 0
Corn (Zea mays) [18]; 16 g ai/ha, 0 to 100 scale
  Corn plant response rating: 0
Corn (Zea mays) [18]; [29]
  Corn plant response rating (0-100): 0
[19]; 16 g ai/ha, 0 to 100 scale
  Pigweed, Palmer plant response rating: 0
[19]; [29]
  Pigweed, Palmer plant response rating (0-100): 20
[20]; 16 g ai/ha, 0 to 100 scale
  Oat, Wild plant response rating: 0
[20]; [29]
  Oat, Wild plant response rating (0-100): 0
[21]; 16 g ai/ha, 0 to 100 scale
  Foxtail, Green plant response rating: 0
[21]; [29]
  Foxtail, Green plant response rating (0-100): 0
Soybean (Glycine max) [22]; 16 g ai/ha, 0 to 100 scale
  Soybean plant response rating: 0
Soybean (Glycine max) [22]; [29]
  Soybean plant response rating (0-100): 0
[23]; 16 g ai/ha, 0 to 100 scale
  Ryegrass, Italian plant response rating: 0
[23]; [29]
  Ryegrass, Italian plant response rating (0-100): 0
[24]; 16 g ai/ha, 0 to 100 scale
  Ragweed plant response rating: 0
[24]; [29]
  Ragweed plant response rating (0-100): 0
[25]; 16 g ai/ha, 0 to 100 scale
  Wheat plant response rating: 0
[25]; [29]
  Wheat plant response rating (0-100): 0
Kochia (Bassia scoparia) [26]; 16 g ai/ha, 0 to 100 scale
  Kochia plant response rating: 0
Kochia (Bassia scoparia) [26]; [29]
  Kochia plant response rating (0-100): 0
